# Test results as given in patent US12558345B2, “CHK1/2 inhibitors for use in the treatment of neuroblastomas and/or soft tissue sarcomas” (Eli Lilly and Company, priority 2015, dated 2026).
# Like-named read-outs stand apart in the source and are kept apart here.
# Assays:
# SJCRH-30 RMS xenograft = assay type: in vivo; conditions: SJCRH-30, RMS
# Experimental: Expand human RMS cancer cells SJCRH-30 (St. Jude Children's Research Hospital) in culture, harvest, and inject 5×10^6 cells in 200 μL of HBSS subcutaneously into the right rear flank of female athymic nude mice (20-22 g, Harlan Laboratories).
# For all studies, measure tumor growth and body weight twice per week beginning on the seventh day after implantation. When tumor size reaches 150-300 mm^3, randomize animals and group into groups of 4-7 animals. Prepare test compound in an appropriate vehicle (e.g. vehicle can be 20% Captisol® in sterile water) and administer subcutaneously for three consecutive days followed by a four day dosing holiday and repeat for a minimum of four weeks. Tumor response is determined by tumor volume measurement performed twice per week during the course of treatment.
# The vehicle used in this study is 20% Captisol® in sterile water and is administered subcutaneously for three consecutive days followed by a four day dosing holiday and repeated for a minimum of four weeks. […] The treatment period lasts 4 weeks.
# HT-29 cells = assay: ECtfs (Two-Fold Sensitization) Assay; assay type: cell-based; conditions: gemcitabine alone
# Experimental: An inhibitor of CHK1 can potentiate the anti-proliferative activity of gemcitabine (or other cytotoxics) through abrogation of the intra-S phase checkpoint, resulting in sustained and increased DNA damage. The capacity for continued tumor cell proliferation after DNA damage can be analyzed by determining the ability of cells to replicate their DNA. […] In this assay, cells are treated with gemcitabine, and then with the compound of Example 2. Following a recovery period, cells are assayed for the ability to incorporate radioactive thymidine into DNA during S phase. The ECtfs parameter is a measure of the concentration of a CHK1 inhibitor necessary to reduce by half the GI90 concentration of gemcitabine, measured in this assay in the absence of CHK1 inhibition. HT-29 cells (obtained from ATCC), are grown in RPMI 1640 plus (Gibco™) 10% (v/v) heat inactivated FBS. These cells are plated at 1.3×10^3 per well on Corning Costar 96-well tissue culture plates. After plating the cells, the tissue culture plates are held at room temperature for 45 minutes, before returning to 37° C. Plates are incubated for 24 hours prior to gemcitabine addition. Before gemcitabine addition, medium is removed from all wells and replaced with 150 μL per well of fresh RPMI medium. Gemcitabine stocks at 10 mM are prepared in PBS. Gemcitabine dilutions were prepared at 4× concentrations in RPMI medium and added to wells at 50 μL per well. The highest final concentration of gemcitabine used is 80 μM and dilutions proceed by four-fold steps. Two hours later, gemcitabine-containing medium is removed from the wells and replaced with 150 μL per well of fresh RPMI medium. […] The volume of addition is 50 μL. Compound dilutions proceed by two-fold steps, starting at 5000 nM. […] Twenty μL of this solution is added to each well, yielding 1 µCi/well of ^3H-thymidine. Cells are labeled for twenty-two hours. The medium containing ^3H-thymidine is thoroughly removed from the wells. The plates are then frozen at −20° C., for several hours. To harvest the DNA containing incorporated ^3H-thymidine, plates are thawed for several minutes, and then 120 μL per well of 0.1 N NaOH is added to each well. Each plate is then incubated at 37° C., with slow mixing on a rotator, for 10 minutes. DNA is harvested with a Filtermate 196 Harvester (PerkinElmer) and collected on 96-well Unifilter GF/C plates (PerkinElmer #6005174). The wells of the tissue culture plate on which cells had been labeled are washed with water (5×). The Unifilter plate membranes are washed with an additional 4.5 mL per well (3×1.0 mL and finally a 1.5 mL wash). The Unifi is sealed with a Backseal adhesive sheet (PerkinElmer), and the 50 μL/well of MicroScint-20 (Perkin Elmer) is added. Each plate is then sealed with a Topseal clear adhesive sheet (PerkinElmer). Plates are counted on a Topcount scintillation counter (PerkinElmer), at 1 minute per well. ^3H-thymidine counts per minute (cpm) are exported into Prism (GraphPad) for analysis and plotting. […] For plotting the data in Prism, the gemcitabine concentrations are transformed to log values, and dose-response curves are fit by non-linear regression. Neither top nor bottom fits are constrained. The ECtfs value is 0.3 nM.
smiles,measurement,setting,value
"COc1cccc2c1C(=O)c1c(O)c3c(c(O)c1C2=O)C[C@@](O)(C(=O)CO)C[C@@H]3O[C@H]1C[C@H](N)[C@H](O)[C@H](C)O1 [Doxorubicin, reference compound]",% T/C,SJCRH-30 RMS xenograft; comparator day 56,16%
"Nc1ccn([C@@H]2O[C@H](CO)[C@@H](O)C2(F)F)c(=O)n1 [gemcitabine, reference compound]",percentage of proliferation inhibition,HT-29 cells; HT29 cells,52%
same,EC50,"HT-29 cells; Homo sapiens, HT-29, HT29 colon carcinoma cells",37 nM
"CCc1c2c(nc3ccc(OC(=O)N4CCC(N5CCCCC5)CC4)cc13)-c1cc3c(c(=O)n1C2)COC(=O)[C@]3(O)CC [irinotecan, reference compound]",% T/C,SJCRH-30 RMS xenograft; comparator day 46,12%
"O=P1(NCCCl)OCCCN1CCCl (centres unmarked) [ifosphamide, reference compound]",% T/C,SJCRH-30 RMS xenograft; comparator day 46,34%
